# Where two headings read alike, the source gives them in different places.
# What was measured:
# H37Rv = type: cell-based; conditions: addition of ATc
# Mtb H37Rv (ATCC 27294) [1] = type: cell-based; conditions: for antibacterial activity over two weeks: two weeks in culture; for effect of guanine on MIC: presence of guanine (200 μM)
# HepG2 cells = conditions: 24 h; for cytotoxicity, lactate dehydrogenase release: 25 μM, range stated for the three compounds together; for LD50 / cytotoxicity (in words): LDH release; for cytotoxicity (in words): up to 25 μM
# Mtb H37Rv (ATCC 27294) [2] = conditions: 7H9/ADC/Tween medium, no guanine, 1 week; cited from earlier work
# [3] = 2 h
# Hela cells = conditions: 25 μM, LDH release
# HEK293T cells = conditions: 25 μM, LDH release
# MCF7 cells = conditions: 25 μM, LDH release
# human GMPR2 = molecular target: T1, human GMPR2 (Homo sapiens, UniProt Q9P2T1); assay: biochemical
# T1 sequence (Q9P2T1 1-348): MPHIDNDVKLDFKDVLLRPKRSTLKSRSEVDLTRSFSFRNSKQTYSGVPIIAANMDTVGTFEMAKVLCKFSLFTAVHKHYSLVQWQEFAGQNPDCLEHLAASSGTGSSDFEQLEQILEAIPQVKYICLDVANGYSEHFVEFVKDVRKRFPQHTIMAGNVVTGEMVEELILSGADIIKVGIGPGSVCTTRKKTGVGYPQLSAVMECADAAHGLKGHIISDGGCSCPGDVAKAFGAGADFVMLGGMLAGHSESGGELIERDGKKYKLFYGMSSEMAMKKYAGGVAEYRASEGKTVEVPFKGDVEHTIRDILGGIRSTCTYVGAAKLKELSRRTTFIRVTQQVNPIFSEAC
# human IMPDH2 = human IMPDH2 (Homo sapiens, UniProt P12268); assay: biochemical
molecule,measurement,setting,value
"C[C@H](Oc1cccc(Cl)c1Cl)C(=O)Nc1ccc2oc(-c3ccc(C(=O)O)cc3)nc2c1 [Compound 22, (S)-4-(5-(2-(2,3-Dichlorophenoxy)propanamido)benzo[d]oxazol-2-yl)benzoic acid]",effect of ATc on antibacterial activity against the wild-type strain,H37Rv,not affected
same,antibacterial activity over two weeks,Mtb H37Rv (ATCC 27294) [1]; Mtb H37Rv,retained activity
"COc1ccc(-c2nc3cc(NC(=O)[C@H](C)Oc4ccccc4C#N)ccc3o2)cc1 [Compound 8u, (S)-2-(2-Cyanophenoxy)-N-(2-(4-methoxyphenyl)benzo[d]oxazol-5-yl)propanamide]",antibacterial activity over two weeks,Mtb H37Rv (ATCC 27294) [1]; Mtb H37Rv,retained antibacterial activity
same,"cytotoxicity, lactate dehydrogenase release",HepG2 cells,9–13%
same,LD50,HepG2 cells,> 25 µM
"CCOC(=O)COc1ccc(-c2nc3cc(NC(=O)[C@H](C)Oc4cccc(Cl)c4Cl)ccc3o2)cc1 [Compound 18a, Ethyl (S)-2-(4-(5-(2-(2,3-dichlorophenoxy)propanamido)benzo[d]oxazol-2-yl)phenoxy)acetate]",effect of ATc on antibacterial activity against the wild-type strain,H37Rv,not affected
same,antibacterial activity over two weeks,Mtb H37Rv (ATCC 27294) [1]; Mtb H37Rv,retained antibacterial activity
same,cytotoxicity (in words),HepG2 cells,"Only compounds 8p, 8u and 17b displayed measurable cytotoxicity"
"C[C@H](Oc1cccc(F)c1F)C(=O)Nc1ccc2oc(-c3ccncc3)nc2c1 [Compound 8l, (S)-2-(2,3-Difluorophenoxy)-N-(2-(pyridin-4-yl)benzo[d]oxazol-5-yl)propanamide]",antibacterial activity over two weeks,Mtb H37Rv (ATCC 27294) [1]; Mtb H37Rv,retained antibacterial activity
same,cytotoxicity (in words),HepG2 cells,"Only compounds 8p, 8u and 17b displayed measurable cytotoxicity"
"COc1ccc(OC(C)C(=O)Nc2ccc3oc(-c4ccncc4)nc3c2)cc1 (stereo not shown) [Compound 1, reference compound]",effect of ATc on antibacterial activity against the wild-type strain,H37Rv,not affected
same,7H9/ADC/Tween MIC −Gua,Mtb H37Rv (ATCC 27294) [2],10 ± 2 (3) μM
"C[C@H](Oc1cccc(Cl)c1Cl)C(=O)Nc1ccc2oc(-c3ccc(OCC(=O)O)cc3)nc2c1 [Compound 19a, (S)-2-(4-(5-(2-(2,3-Dichlorophenoxy)propanamido)benzo[d]oxazol-2-yl)phenoxy)acetic acid]",cytotoxicity (in words),HepG2 cells,no cytotoxicity was observed
"(S)-2-(2,3-Dichlorophenoxy)-N-(2-(2-methoxypyridin-4-yl)benzo[d]oxazol-5-yl)propanamide [Compound 8b]",7H9/ADC/Tween MIC +Gua,"Mtb H37Rv (ATCC 27294) [1]; Mtb H37Rv, 7H9/ADC/Tween medium, 200 μM guanine, 1 week",14 ± 5 (2) μM
same,7H9/ADC/Tween MIC −Gua,"Mtb H37Rv (ATCC 27294) [1]; Mtb H37Rv, 7H9/ADC/Tween medium, no guanine, 1 week",3.5 ± 1.2 (2) μM
same,GAST/Fe MIC +Gua,"Mtb H37Rv (ATCC 27294) [1]; Mtb H37Rv, GAST/Fe medium, 200 μM guanine, 1 week",6.3 ± 0.0 (2) μM
same,GAST/Fe MIC −Gua,"Mtb H37Rv (ATCC 27294) [1]; Mtb H37Rv, GAST/Fe medium, no guanine, 1 week",6.3 ± 0.0 (2) μM
"C[C@H](Oc1cccc(Cl)c1Cl)C(=O)Nc1ccc2oc(-c3ccc(C(=O)NO)cc3)nc2c1 [Compound 21, (S)-4-(5-(2-(2,3-Dichlorophenoxy)propanamido)benzo[d]oxazol-2-yl)-N-hydroxybenzamide]",antibacterial activity over two weeks,Mtb H37Rv (ATCC 27294) [1]; Mtb H37Rv,retained activity
"C[C@H](Nc1cccc(F)c1F)C(=O)Nc1ccc2oc(-c3ccc(C#N)cc3)nc2c1 [Compound 17b, (S)-N-(2-(4-Cyanophenyl)benzo[d]oxazol-5-yl)-2-((2,3-difluorophenyl)amino)propanamide]",effect of ATc on antibacterial activity against the wild-type strain,H37Rv,not affected
same,antibacterial activity over two weeks,Mtb H37Rv (ATCC 27294) [1]; Mtb H37Rv,retained antibacterial activity
same,effect of guanine on MIC,Mtb H37Rv (ATCC 27294) [1],does not change
same,stability in mouse plasma,[3],No decomposition
same,cytotoxicity,Hela cells,less than 10%
same,"cytotoxicity, lactate dehydrogenase release",HepG2 cells,9–13%
same,LD50,HepG2 cells,> 25 µM
same,cytotoxicity,HEK293T cells,less than 10%
same,cytotoxicity,MCF7 cells,less than 10%
"C[C@H](Oc1cccc(Cl)c1Cl)C(=O)Nc1ccc2oc(-c3ccc(-c4nnn[nH]4)cc3)nc2c1 [Compound 27, (S)-N-(2-(4-(1H-Tetrazol-5-yl)phenyl)benzo[d]oxazol-5-yl)-2-(2,3-dichlorophenoxy)propanamide]",Ki,human GMPR2,> 5 µM
same,Ki,human IMPDH2,> 5 µM
"COc1ccc(-c2nc3cc(NC(=O)[C@H](C)Oc4cccc(Cl)c4Cl)ccc3o2)cn1 [Compound 8c, (S)-2-(2,3-dichlorophenoxy)-N-(2-(6-methoxypyridin-3-yl)benzo[d]oxazol-5-yl)propanamide]",effect of guanine on MIC,Mtb H37Rv (ATCC 27294) [1],increased in the presence of guanine in 7H9/ADC/Tween medium but not in GAST/Fe
"COc1ccc(-c2nc3cc(NC[C@H](C)Oc4cccc(Cl)c4Cl)ccc3o2)cc1 [Compound 11, (S)-N-(2-(2,3-Dichlorophenoxy)propyl)-2-(4-methoxyphenyl)benzo[d]oxazol-5-amine]",Ki,human GMPR2,> 5 µM
"C[C@H](Nc1cccc(Cl)c1Cl)C(=O)Nc1ccc2oc(-c3ccc(C#N)cc3)nc2c1 [Compound 17a, (S)-N-(2-(4-Cyanophenyl)benzo[d]oxazol-5-yl)-2-((2,3-dichlorophenyl)amino)propanamide]",antibacterial activity over two weeks,Mtb H37Rv (ATCC 27294) [1]; Mtb H37Rv,retained antibacterial activity
"C#CCOC(=O)COc1ccc(-c2nc3cc(NC(=O)[C@H](C)Oc4cccc(Cl)c4Cl)ccc3o2)cc1 [Compound 20, Prop-2-yn-1-yl (S)-2-(4-(5-(2-(2,3-dichlorophenoxy)propanamido)benzo[d]oxa-zol-2-yl)phenoxy)acetate]",antibacterial activity over two weeks,Mtb H37Rv (ATCC 27294) [1]; Mtb H37Rv,retained antibacterial activity
same,cytotoxicity (in words),HepG2 cells,"Only compounds 8p, 8u and 17b displayed measurable cytotoxicity"
"C[C@H](Oc1cccc(F)c1F)C(=O)Nc1ccc2oc(-c3ccc(C#N)cc3)nc2c1 [Compound 8p, (S)-N-(2-(4-Cyanophenyl)benzo[d]oxazol-5-yl)-2-(2,3-difluorophenoxy)propanamide]","cytotoxicity, lactate dehydrogenase release",HepG2 cells,9–13%
same,LD50,HepG2 cells,> 25 µM
"C[C@H](Oc1cccc(F)c1F)C(=O)Nc1ccc2oc(-c3ccc(O)cc3)nc2c1 [Compound 8n, (S)-2-(2,3-Difluorophenoxy)-N-(2-(4-hydroxyphenyl)benzo[d]oxazol-5-yl)propanamide]",effect of guanine on MIC,Mtb H37Rv (ATCC 27294) [1],increased substantially in the presence of guanine in both media

# Source: PMC6166404 (Journal of medicinal chemistry, 2018)
